Experiment [1] is described as follows: Detection of biothiol: absorption and fluorescence spectrum with endogenous amino acids in HEPES buffer. The format is biochemical. Particulars: 10 μM compound; for absorption strength at 750 nm: HEPES pH 7.4, 10% DMSO, 25° C.; for fluorescence strength at 736 nm: λex=730 nm. As to the method:
10 μM of the compound prepared in Example 1 and 100 μM of each endogenous amino acid (glutathione, cysteine, homocysteine, dithiothreitol, phenylalanine, histidine, glutamine, lysine, glutamate, glycine, serine, alanine, arginine, methionine, tyrosine) were added to HEPES (4-(2-hydroxyethyl)piperazine-1-ethanesulfonic acid) buffer (10 mM, pH=7.4) containing 10% dimethylsulfoxide (DMSO), followed by observation of absorption spectrum presented through UV-vis sepctra (Scinco 3000 spectrophotometer, 1 cm quartz cell) at 25° C.
The following experiment was performed by the same manner as described in Experimental Example <1-1> except that fluorescence spectrum was observed by using RF-5310/PC fluorescence spectrometer (Shimada, 1 cm quartz cell) instead of observing absorption spectrum via UV-vis sepctra (Scinco 3000 spectrophotometer, 1 cm quartz cell) (λex=730 nm, λem=736 nm, slit:10/10 nm).

In the next experiment the test system is HeLa cells. The experiment is described as follows: Detection of intracellular biothiol in HeLa cells, confocal laser scanning microscope. Particulars: 10 μM compound. The format is cell-based, human. Here is the method: HeLa cells (human adenocarcinoma cells, Korea Cell Line Bank) were cultured in RPMI 1640 (Roswell Park Memorial Institute) supplemented with 10% heat-inactivated fetal bovine serum (FBS), 100 U/mL penicillin, and 100 U/mL streptomycin in a 37° C. 5% CO2 incubator. The cells were either treated or not treated with 1 mM of N-methylmaleimide (NMM) known as a thiol blocker for 20 minutes. 100 μM of each amino acid containing thiol group (R—SH) such as cysteine, homocysteine, and glutathione was added thereto. Then, the cells were seeded in 35-mm glass bottomed dishes at the density of 3×10^5 cells/dish in 1640 medium. 24 hours later, 10 μM of the compound prepared in Example 1 was added thereto, followed by culture at 37° C. for 20 minutes. The cells were washed with DPBS (Dulbecco's Phosphate Buffered Saline) twice to eliminate the remaining compound, followed by imaging with confocal laser scanning microscope (Fluoview 1200, Olympus, Japan). At this time, the emitting filter with the excitation wavelength of 635 nm and the band-path (BP) of 655˜755 nm was used.

A short description of experiment [2]: Absorption and fluorescence spectrum according to the concentration of glutathione. The format is biochemical. Conditions: for absorption signal at 830 nm / fluorescence signal at 780 nm: 10 μM compound. As to the method:
10 μM of the compound prepared in Example 2 and glutathione were added to HEPES (4-(2-hydroxyethyl)piperazine-1-ethanesulfonic acid) buffer (10 mM, pH=7.4) containing 10% dimethylsulfoxide (DMSO) with raising slowly the concentration of glutathione from 0 to 50 μM, during which the changes of absorption spectrum were observed using UV-vis sepctra (Scinco 3000 spectrophotometer, 1 cm quartz cell) at 25° C.
The following experiment was performed by the same manner as described in Experimental Example <4-1> except that fluorescence spectrum was observed by using RF-5310/PC fluorescence spectrometer (Shimada, 1 cm quartz cell) instead of observing absorption spectrum via UV-vis sepctra (Scinco 3000 spectrophotometer, 1 cm quartz cell) (λex=730 nm, λem=736 nm, slit:10/10 nm).
10 μM of the compound prepared in Example 3 and glutathione were added to HEPES (4-(2-hydroxyethyl)piperazine-1-ethanesulfonic acid) buffer (10 mM, pH=7.4) containing 10% dimethylsulfoxide (DMSO) with raising slowly the concentration of glutathione from 0 to 100 μM, during which the changes of absorption spectrum were observed using UV-vis sepctra (Scinco 3000 spectrophotometer, 1 cm quartz cell) at 25° C.
The following experiment was performed by the same manner as described in Experimental Example <16-1> except that fluorescence spectrum was observed by using RF-5310/PC fluorescence spectrometer (Shimada, 1 cm quartz cell) instead of observing absorption spectrum via UV-vis sepctra (Scinco 3000 spectrophotometer, 1 cm quartz cell) (λex=730 nm, λem=736 nm, slit:10/10 nm).

Experiment [3] in a line: Glutathione selectivity: absorption/fluorescence spectrum with various amino acids in HEPES buffer. The format is biochemical. Here is the method:
10 μM of the compound prepared in Example 2 was treated to HEPES (4-(2-hydroxyethyl)piperazine-1-ethanesulfonic acid) buffer (10 mM, pH=7.4) containing 10% DMSO and 100 μM of each glutathione, cysteine, homocysteine, dithiothreitol, phenylalanine, histidine, glutamine, lysine, glutamate, glycine, serine, alanine, arginine, methionine, and tyrosine, followed by observation of fluorescence spectrum at 25° C. by using RF-5310/PC fluorescence spectrometer (Shimada, 1 cm quartz cell).
An experiment was performed by the same manner as described in Experimental Example 3 except that the fragment 1 or the fragment 2 was used instead of the compound prepared in Example 2. […] To disclose the reason in relation to the above, the 3-dimensional structure of each of the compound of Example 1, the compound of Example 2, and the fragment 1 or the fragment 2, was investigated along with band-gap.
10 μM of the compound prepared in Example 3 and 100 μM of each endogenous amino acid (alanine, arginine, cysteine, glutamate, glycine, glutathione, homocysteine, histidine, lysine, methionine, serine, and tyrosine) were added to HEPES (4-(2-hydroxyethyl)piperazine-1-ethanesulfonic acid) buffer (10 mM, pH=7.4) containing 10% dimethylsulfoxide (DMSO), followed by observation of absorption spectrum presented through UV-vis sepctra (Scinco 3000 spectrophotometer, 1 cm quartz cell) at 25° C.
The following experiment was performed by the same manner as described in Experimental Example <15-1> except that fluorescence spectrum was observed by using RF-5310/PC fluorescence spectrometer (Shimada, 1 cm quartz cell) instead of observing absorption spectrum via UV-vis sepctra (Scinco 3000 spectrophotometer, 1 cm quartz cell) (λex=730 nm, λem=736 nm, slit:10/10 nm).

Where [4] appears, read: 100 μM amino acids containing thiol group (glutathione, cysteine, homocysteine, dithiothreitol).
[5] abbreviates: 100 μM other amino acids not-containing thiol group.
The mark [6] stands for this setting: glutathione raised from 0 to 100 μM.
Setting [7] is: 10 μM compound, 100 μM other amino acids except glutathione.

Three compounds from US9951226B2, “Compound based on cyanine scaffold for diagnosis sepsis by selectively detect glutathione” (EWHA UNIVERSITY—INDUSTRY COLLABORATION FOUNDATION, priority 2014, dated 2018) can be followed below.

Take `CCCN1/C(=C/C=C2\CCCC(/C=C/C3=[N+](CCC)c4ccccc4C3(C)C)=C2N2CCN(S(=O)(=O)c3ccc([N+](=O)[O-])cc3[N+](=O)[O-])CC2)C(C)(C)c2ccccc21.[I-]` [Example 1, 2-((E)-2-((E)-3-((E)-2-(3,3-dimethyl-1-propylindolium-2-ylidene)ethylidene)-2-(4-(2,4-dinitrophenylsulfonyl)piperazine-1-yl)cyclohex-1-enyl)binyl)-3,3-dimethyl-1-propyl-3H-indolium iodide]: the results for the “absorption strength at 750 nm” value in experiment [1] (setting [4]) and in experiment [1] (setting [5]) were “strong absorption strength” and “weak absorption strength”, respectively. Besides, the “fluorescence strength at 736 nm” value in experiment [1] (setting [4]) is given as “strong fluorescence strength”; in experiment [1] (setting [5]), “weak fluorescence strength”. In addition, the “red fluorescence under confocal laser scanning microscope” value was “strong red fluorescence was observed” in the experiment on HeLa cells (HeLa cells pre-treated with NMM, 100 μM cysteine added); “strong red fluorescence was observed” in the experiment on HeLa cells (HeLa cells pre-treated with NMM, 100 μM glutathione added); “strong red fluorescence was observed” in the experiment with HeLa cells (HeLa cells pre-treated with NMM, 100 μM homocysteine added); “red fluorescence was not observed” in the experiment with HeLa cells (HeLa cells pre-treated with thiol blocker NMM 1 mM); “strong red fluorescence was detected” in the experiment on HeLa cells (HeLa cells, 20 minutes).
As for `CCCCN1C(=O)c2cccc3c(S(=O)(=O)N4CCN(C5=C(/C=C/C6=[N+](CCC)c7ccccc7C6(C)C)CCC/C5=C\C=C5\N(CCC)c6ccccc6C5(C)C)CC4)ccc(c23)C1=O.[I-]` [Example 3, 2-((E)-2-((E)-2-(4-((2-butyl-1,3-dioxo-2,3-dihydro-1H-benzeneisoquinoline-6-yl)sulfonyl)piperazine-1-yl)-3-((E)-2-(3,3-dimethyl-1-propylindolin-2-ylidene)ethylidene)cyclohex-1-en-1-yl)binyl)-3,3-dimethyl-1-propyl-3H-indolium iodide], the “absorption signal at 830 nm” value is on record as “strong absorption signal” in experiment [2] (glutathione not added), “getting weaker” in experiment [2] (setting [6]) and “strong absorption signal” in experiment [3] (setting [7]). Besides, the “fluorescence signal at 780 nm” value is “weak fluorescence signal” in experiment [2] (glutathione not added), “getting stronger” in experiment [2] (setting [6]) and “weak fluorescence signal” in experiment [3] (setting [7]). Besides, the “dependence of the reaction on glutathione concentration” value in experiment [2] (conclusion from absorption and fluorescence spectra) is “dose-dependently”. In addition, the “fluorescence signal near 780 nm” value in experiment [3] (10 μM compound, 100 μM glutathione) is listed as “strong fluorescence signal”. Besides, the “absorption signal near 830 nm” value in experiment [3] (10 μM compound, 100 μM glutathione, HEPES pH 7.4, 10% DMSO, 25° C.) was “weak absorption signal”.
With `CCCN1/C(=C/C=C2\CCCC(/C=C/C3=[N+](CCC)c4ccccc4C3(C)C)=C2N2CCNCC2)C(C)(C)c2ccccc21` [fragment 2, 2-((E)-2-((E)-3-((E)-2-(3,3-dimethyl-1-propylindolin-2-ylidene)ethylidene)-2-(piperazine-1-yl)cyclohex-1-enyl)binyl)-3,3-dimethyl-1-propyl-3H-indolium iodide], the “changes in absorption or fluorescence spectrum (capacity of detecting glutathione)” value in experiment [3] (same manner as Experimental Example 3, fragment instead of Example 2) is reported as “no changes in absorption or fluorescence spectrum were detected”.
